Our source for the IC50 values is patent US9580416B2, “Inhibitors of Bruton's tyrosine kinase” (PHARMACYCLICS LLC, priority 2014, dated 2017).

What all share (format): biochemical
One test concerns the target T1, JAK3 (Homo sapiens, UniProt P52333).
T1 sequence (P52333 1-1124): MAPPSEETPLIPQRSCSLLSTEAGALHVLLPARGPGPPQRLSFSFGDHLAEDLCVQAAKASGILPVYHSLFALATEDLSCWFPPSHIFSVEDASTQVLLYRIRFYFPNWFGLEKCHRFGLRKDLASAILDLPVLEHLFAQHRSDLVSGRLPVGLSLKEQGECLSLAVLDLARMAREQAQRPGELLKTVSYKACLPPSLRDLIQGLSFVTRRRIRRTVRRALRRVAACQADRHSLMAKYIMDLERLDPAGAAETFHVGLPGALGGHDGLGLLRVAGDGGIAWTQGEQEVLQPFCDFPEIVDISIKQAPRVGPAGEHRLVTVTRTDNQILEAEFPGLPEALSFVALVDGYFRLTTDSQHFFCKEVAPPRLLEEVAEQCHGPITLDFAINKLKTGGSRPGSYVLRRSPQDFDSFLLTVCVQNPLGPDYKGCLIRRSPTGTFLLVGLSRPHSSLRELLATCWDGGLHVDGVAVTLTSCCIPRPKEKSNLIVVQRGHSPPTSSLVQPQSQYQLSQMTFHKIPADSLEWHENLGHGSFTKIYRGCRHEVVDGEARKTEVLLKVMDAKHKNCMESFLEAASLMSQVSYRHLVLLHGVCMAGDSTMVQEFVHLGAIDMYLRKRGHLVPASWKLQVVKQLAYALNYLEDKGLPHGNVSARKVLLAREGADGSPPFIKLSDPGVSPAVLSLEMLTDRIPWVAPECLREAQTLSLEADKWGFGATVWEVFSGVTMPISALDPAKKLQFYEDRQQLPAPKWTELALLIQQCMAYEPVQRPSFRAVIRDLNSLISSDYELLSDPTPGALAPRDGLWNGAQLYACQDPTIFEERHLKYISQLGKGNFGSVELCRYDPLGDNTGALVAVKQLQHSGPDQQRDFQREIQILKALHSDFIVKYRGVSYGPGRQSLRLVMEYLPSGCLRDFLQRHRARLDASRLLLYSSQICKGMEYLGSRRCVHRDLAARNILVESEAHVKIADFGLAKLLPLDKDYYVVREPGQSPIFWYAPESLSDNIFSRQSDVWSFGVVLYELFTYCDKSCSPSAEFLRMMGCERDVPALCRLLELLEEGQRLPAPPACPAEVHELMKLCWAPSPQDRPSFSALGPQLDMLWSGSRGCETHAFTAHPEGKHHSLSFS
Briefly: Inhibition of a panel of kinases, in vitro HotSpot kinase assay: JAK3. The procedure: (§1) The degree of inhibition of a panel of kinases is determined using the in vitro HotSpot kinase assay (purified enzymes, ^33P-ATP, an appropriate substrate and 1 uM ATP).

The target in another test is EGFR (Homo sapiens, UniProt P00533). Briefly: Inhibition of a panel of kinases, in vitro HotSpot kinase assay: EGFR. The procedure:
as §1

The next test has as its target Btk (Homo sapiens, UniProt Q06187). Briefly: Btk kinase activity, TR-FRET assay. The conditions noted are these: read-out: Btk (IC50). In short, it runs like this:
(§2)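 Enzyme (Btk 0.5 nM; Lck 6 nM) reacted 1 h with inhibitor, ATP at Km and biotin-peptide substrate in pH 7.4 buffer, 10% DMSO. Phosphopeptide detected by Eu-p-Tyr100 antibody plus streptavidin-APC (665/615 nm). IC50 calculated from fitted Ki(app) via ATP/Km correction plus half total enzyme.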

Another test addresses Lck (Homo sapiens, UniProt P06239). Briefly: Lck kinase activity, TR-FRET assay. Particulars: read-out: LCK (IC50). The essentials: as §2

EGFR, sequence (P00533 25-1210): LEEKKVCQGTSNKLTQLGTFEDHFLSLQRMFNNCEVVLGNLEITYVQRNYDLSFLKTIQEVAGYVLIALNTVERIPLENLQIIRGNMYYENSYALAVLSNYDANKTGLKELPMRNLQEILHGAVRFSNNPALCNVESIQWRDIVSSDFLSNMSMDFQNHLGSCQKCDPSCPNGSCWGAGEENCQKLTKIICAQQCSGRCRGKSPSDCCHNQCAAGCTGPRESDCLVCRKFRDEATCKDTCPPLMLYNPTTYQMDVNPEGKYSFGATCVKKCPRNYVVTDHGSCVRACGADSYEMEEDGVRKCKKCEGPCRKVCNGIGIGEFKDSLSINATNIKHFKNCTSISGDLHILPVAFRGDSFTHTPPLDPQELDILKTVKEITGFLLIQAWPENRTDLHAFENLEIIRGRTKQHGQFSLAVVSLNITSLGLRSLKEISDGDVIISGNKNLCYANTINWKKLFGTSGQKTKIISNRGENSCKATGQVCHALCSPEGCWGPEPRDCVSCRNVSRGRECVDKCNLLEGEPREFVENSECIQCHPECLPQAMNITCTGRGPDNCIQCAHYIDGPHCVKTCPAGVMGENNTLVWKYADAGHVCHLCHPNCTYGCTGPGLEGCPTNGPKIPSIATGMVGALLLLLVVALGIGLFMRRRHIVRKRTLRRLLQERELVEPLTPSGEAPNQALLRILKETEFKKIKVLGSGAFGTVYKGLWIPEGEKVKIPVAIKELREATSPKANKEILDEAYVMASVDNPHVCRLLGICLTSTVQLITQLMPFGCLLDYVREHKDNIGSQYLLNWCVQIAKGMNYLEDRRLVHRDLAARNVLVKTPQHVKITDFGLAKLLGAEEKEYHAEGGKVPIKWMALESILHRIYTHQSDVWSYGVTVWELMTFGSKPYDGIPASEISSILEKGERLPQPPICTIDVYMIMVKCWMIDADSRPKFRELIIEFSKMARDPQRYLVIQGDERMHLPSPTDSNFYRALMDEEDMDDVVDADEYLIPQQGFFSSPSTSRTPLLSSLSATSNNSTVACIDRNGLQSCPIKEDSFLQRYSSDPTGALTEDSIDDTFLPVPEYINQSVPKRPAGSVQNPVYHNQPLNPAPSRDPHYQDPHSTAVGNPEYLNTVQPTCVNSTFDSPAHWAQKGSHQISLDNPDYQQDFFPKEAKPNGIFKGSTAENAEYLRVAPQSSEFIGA
Lck, sequence (P06239 whole entry, species assumed): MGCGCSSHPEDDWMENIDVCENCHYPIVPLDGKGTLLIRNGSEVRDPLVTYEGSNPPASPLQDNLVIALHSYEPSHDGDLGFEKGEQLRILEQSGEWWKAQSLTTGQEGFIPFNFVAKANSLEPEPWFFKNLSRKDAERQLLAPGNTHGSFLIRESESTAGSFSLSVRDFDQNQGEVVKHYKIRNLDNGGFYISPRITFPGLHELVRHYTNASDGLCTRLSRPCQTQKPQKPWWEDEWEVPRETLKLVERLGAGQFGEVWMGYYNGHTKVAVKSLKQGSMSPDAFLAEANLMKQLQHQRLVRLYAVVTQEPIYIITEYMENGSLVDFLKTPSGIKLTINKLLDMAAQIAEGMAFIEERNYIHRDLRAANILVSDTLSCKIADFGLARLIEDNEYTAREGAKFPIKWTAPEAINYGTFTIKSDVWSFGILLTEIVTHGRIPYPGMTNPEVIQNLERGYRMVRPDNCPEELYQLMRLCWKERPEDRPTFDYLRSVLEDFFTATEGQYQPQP
Btk, sequence (Q06187 whole entry): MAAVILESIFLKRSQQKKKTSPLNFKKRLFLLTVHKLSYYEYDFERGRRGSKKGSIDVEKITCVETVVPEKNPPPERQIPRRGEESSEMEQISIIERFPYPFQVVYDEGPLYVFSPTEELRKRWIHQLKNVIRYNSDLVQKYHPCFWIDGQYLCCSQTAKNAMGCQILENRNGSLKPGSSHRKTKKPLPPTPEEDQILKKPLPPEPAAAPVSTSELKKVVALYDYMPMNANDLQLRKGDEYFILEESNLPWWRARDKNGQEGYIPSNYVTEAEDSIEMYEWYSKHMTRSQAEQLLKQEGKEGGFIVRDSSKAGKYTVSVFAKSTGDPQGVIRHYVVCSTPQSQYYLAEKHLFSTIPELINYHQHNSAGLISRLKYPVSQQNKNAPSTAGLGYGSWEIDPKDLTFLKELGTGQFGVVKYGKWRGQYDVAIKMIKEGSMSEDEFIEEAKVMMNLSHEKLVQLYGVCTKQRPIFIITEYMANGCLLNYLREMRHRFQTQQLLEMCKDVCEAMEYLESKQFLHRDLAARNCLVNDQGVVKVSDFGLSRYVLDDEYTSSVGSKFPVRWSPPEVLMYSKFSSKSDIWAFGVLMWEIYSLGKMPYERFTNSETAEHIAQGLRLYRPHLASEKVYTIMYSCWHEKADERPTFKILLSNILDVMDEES

`CCC(=O)N1CC[C@@H](Nc2n[nH]c3nccc(Oc4ccc(C(=O)Nc5ncc(C)s5)cc4)c23)C1` [compound 72, N-(5-methyl-1,3-thiazol-2-yl)-4-[(3-{[(3R)-1-propanoylpyrrolidin-3-yl]amino}-1H-pyrazolo[3,4-b]pyridin-4-yl)oxy]benzamide] displayed an IC50 at JAK3 of 1000 to 10000 nM.

For `N#Cc1ccnc(NC(=O)c2ccc(Oc3ccnc4[nH]nc(NC5CCOCC5)c34)cc2)c1` [compound 77, N-(4-cyanopyridin-2-yl)-4-({3-[(oxan-4-yl)amino]-1H-pyrazolo[3,4-b]pyridin-4-yl}oxy)benzamide], the IC50 was 1000 to 10000 nM on EGFR, < 100 nM at Btk and 100 to 1000 nM at Lck.

As to `CCOC(=O)N1CCC[C@@H](Nc2n[nH]c3nccc(Oc4ccc(C(=O)Nc5cc(C#N)ccn5)cc4)c23)C1` [compound 78, ethyl (3R)-3-[(4-{4-[(4-cyanopyridin-2-yl)carbamoyl]phenoxy}-1H-pyrazolo[3,4-b]pyridin-3-yl)amino]piperidine-1-carboxylate], the IC50 against EGFR was 1000 to 10000 nM; at Btk, < 100 nM; on Lck, 100 to 1000 nM.

On to `CCNC(=O)N1CCC[C@@H](Nc2n[nH]c3nccc(Oc4ccc(C(=O)Nc5cc(C#N)ccn5)cc4)c23)C1` [compound 79, (3R)-3-[(4-{4-[(4-cyanopyridin-2-yl)carbamoyl]phenoxy}-1H-pyrazolo[3,4-b]pyridin-3-yl)amino]-N-ethylpiperidine-1-carboxamide], for which the results for the IC50 on EGFR, on Btk and on Lck were < 100 nM, < 100 nM and 100 to 1000 nM, respectively.

With `COCCC(=O)N1CCC[C@@H](Nc2n[nH]c3nccc(Oc4ccc(C(=O)Nc5cc(C#N)ccn5)cc4)c23)C1` [compound 80, N-(4-cyanopyridin-2-yl)-4-[(3-{[(3R)-1-(3-methoxypropanoyl)piperidin-3-yl]amino}-1H-pyrazolo[3,4-b]pyridin-4-yl)oxy]benzamide], the results for the IC50 on EGFR, on Btk and at Lck were < 100 nM, < 100 nM and 100 to 1000 nM, respectively.

In the case of `N#Cc1ccnc(NC(=O)c2ccc(Oc3ccnc4[nH]nc(N[C@@H]5CCCN(C(=O)C6CC6)C5)c34)cc2)c1` [compound 81, N-(4-cyanopyridin-2-yl)-4-[(3-{[(3R)-1-cyclopropanecarbonylpiperidin-3-yl]amino}-1H-pyrazolo[3,4-b]pyridin-4-yl)oxy]benzamide], the IC50 at EGFR was 1000 to 10000 nM; at Btk, < 100 nM; at Lck, 100 to 1000 nM.

For the compound `CO[C@H]1CC[C@@H](Nc2n[nH]c3nccc(Oc4ccc(C(=O)Nc5cc(C#N)ccn5)cc4)c23)CC1` [compound 85, N-(4-cyanopyridin-2-yl)-4-[(3-{[(1S,4S)-4-methoxycyclohexyl]amino}-1H-pyrazolo[3,4-b]pyridin-4-yl)oxy]benzamide], the IC50 on EGFR was 100 to 1000 nM; at Btk it was < 100 nM; on Lck, 100 to 1000 nM.

With `Cc1ccnc(NC(=O)c2ccc(Oc3ccnc4[nH]nc(N[C@@H]5CCCN(C(=O)C6(C)CCOCC6)C5)c34)cc2)c1` [compound 87, 4-[(3-{[(3R)-1-(4-methyloxane-4-carbonyl)piperidin-3-yl]amino}-1H-pyrazolo[3,4-b]pyridin-4-yl)oxy]-N-(4-methylpyridin-2-yl)benzamide], the IC50 against EGFR was > 10000 nM; on Btk, < 100 nM; at Lck, 1000 to 10000 nM.

As to `Cc1ccnc(NC(=O)c2ccc(Oc3ccnc4[nH]nc(N[C@@H]5CCCN(C(=O)C6(C)CCC6)C5)c34)cc2)c1` [compound 88, 4-[(3-{[(3R)-1-(1-methylcyclobutanecarbonyl)piperidin-3-yl]amino}-1H-pyrazolo[3,4-b]pyridin-4-yl)oxy]-N-(4-methylpyridin-2-yl)benzamide], the IC50 was > 10000 nM on EGFR, < 100 nM on Btk and 1000 to 10000 nM at Lck.

For the compound `Cc1ccnc(NC(=O)c2ccc(Oc3ccnc4[nH]nc(N[C@@H]5CCCN(C(=O)C6(C)CCOC6)C5)c34)cc2)c1` (stereo partly drawn) [compound 89, 4-[(3-{[(3R)-1-(3-methyloxolane-3-carbonyl)piperidin-3-yl]amino}-1H-pyrazolo[3,4-b]pyridin-4-yl)oxy]-N-(4-methylpyridin-2-yl)benzamide], the IC50 at EGFR is > 10000 nM; on Btk, < 100 nM; on Lck it was 1000 to 10000 nM.

Regarding `Cc1ccnc(NC(=O)c2ccc(Oc3ccnc4[nH]nc(N[C@@H]5CCCN(C(=O)C6COC6)C5)c34)cc2)c1` [compound 90, N-(4-methylpyridin-2-yl)-4-[(3-{[(3R)-1-(oxetan-3-carbonyl)piperidin-3-yl]amino}-1H-pyrazolo[3,4-b]pyridin-4-yl)oxy]benzamide], the results for the concentration for half-maximal inhibition (IC50) at EGFR, on Btk and on Lck were 1000 to 10000 nM, < 100 nM and 100 to 1000 nM, respectively.

`Cc1ccnc(NC(=O)c2ccc(Oc3ccnc4[nH]nc(N[C@@H]5CCCN(C(=O)N6CCOCC6)C5)c34)cc2)c1` [compound 91, N-(4-methylpyridin-2-yl)-4-[(3-{[(3R)-1-(morpholine-4-carbonyl)piperidin-3-yl]amino}-1H-pyrazolo[3,4-b]pyridin-4-yl)oxy]benzamide]: the figures for the concentration for half-maximal inhibition (IC50) against EGFR, at Btk and on Lck were > 10000 nM, < 100 nM and 1000 to 10000 nM, respectively.

With `Cc1ccnc(NC(=O)c2ccc(Oc3ccnc4[nH]nc(N[C@@H]5CCCN(C(=O)C6CCN(C)CC6)C5)c34)cc2)c1` [compound 92, 4-[(3-{[(3R)-1-(1-methylpiperidine-4-carbonyl)piperidin-3-yl]amino}-1H-pyrazolo[3,4-b]pyridin-4-yl)oxy]-N-(4-methylpyridin-2-yl)benzamide], the IC50 at EGFR is 1000 to 10000 nM; on Btk, < 100 nM; at Lck it was 100 to 1000 nM.

On to `CCNC(=O)N1CCC[C@@H](Nc2n[nH]c3nccc(Oc4ccc(-c5nc6cccc(C)c6o5)cc4)c23)C1` [compound 182], for which the IC50 was > 10000 nM on EGFR, 100 to 1000 nM on Btk and > 10000 nM at Lck.

For `Cc1cccc2nc(-c3ccc(Oc4ccnc5[nH]nc(N[C@@H]6CCCN(C(=O)C7CCN(C)CC7)C6)c45)cc3)oc12` [compound 184], the IC50 against EGFR is > 10000 nM; at Btk, 1000 to 10000 nM; on Lck it was > 10000 nM.

`CCNC(=O)N1CCCC(c2n[nH]c3nccc(Oc4ccc(C(=O)Nc5cc(C(F)(F)F)ccn5)cc4)c23)C1` (stereo not shown) [compound 186]: the IC50 against EGFR lay in the range of 1000 to 10000 nM; at Btk, 100 to 1000 nM; at Lck it was 100 to 1000 nM.

Turning to `CCNC(=O)N1CC[C@@H](Nc2n[nH]c3nccc(Oc4ccc(C(=O)Nc5ncc(C)s5)cc4)c23)C1` [compound 189], the half-inhibitory concentration (IC50) against EGFR was > 10000 nM; on Btk, < 100 nM; at Lck, 1000 to 10000 nM.

Turning to `CCC(=O)N1CC[C@@H](Nc2n[nH]c3nccc(Oc4ccc(C(=O)Nc5ncc(C)s5)cc4)c23)C1` [compound 190], the results for the IC50 against EGFR, at Btk and at Lck were 1000 to 10000 nM, < 100 nM and 1000 to 10000 nM, respectively.

As for `Cc1cnc(NC(=O)c2ccc(Oc3ccnc4[nH]nc(C5CCCN(C(=O)C6CC6)C5)c34)cc2)s1` (stereo not shown) [compound 193], the IC50 on EGFR was 1000 to 10000 nM; at Btk it was 100 to 1000 nM; on Lck it was > 10000 nM.

For `CCNC(=O)N1CCCC(c2n[nH]c3nccc(Oc4ccc(C(=O)Nc5ncc(C)s5)cc4)c23)C1` (stereo not shown) [compound 195, N-ethyl-3-(4-{4-[(5-methyl-1,3-thiazol-2-yl)carbamoyl]phenoxy}-1H-pyrazolo[3,4-b]pyridin-3-yl)piperidine-1-carboxamide], the values for the IC50 on EGFR, at Btk and on Lck were 1000 to 10000 nM, 100 to 1000 nM and 1000 to 10000 nM, respectively.

For `CN1CCC(C(=O)N2CCC[C@@H](Nc3n[nH]c4nccc(Oc5ccc(-c6nc7ccccc7s6)cc5)c34)C2)CC1` [compound 197, (3R)-N-{4-[4-(1,3-benzothiazol-2-yl)phenoxy]-1H-pyrazolo[3,4-b]pyridin-3-yl}-1-(1-methylpiperidine-4-carbonyl)piperidin-3-amine], the half-inhibitory concentration (IC50) against EGFR is > 10000 nM; at Btk it was 100 to 1000 nM; on Lck, 100 to 1000 nM.
